The record followed here is patent publication US20220411785A1, “LIBRARY OF BARCODED EXTRACELLULAR VESICLES” (The University of Tokyo, priority 2019, published 2022).

The test relates to HEK293T cells expressing CD63-nanoLuc. The test can be described thus: EV secretion level after GSK-A1 (nanoLuc luminescence assay / nanoparticle tracking analysis). The following applies: addition of GSK-A1; control without GSK-A1 set as 1; nluc activity in culture supernatant or NTA. In kind it is cell-based. On the procedure: A PI4KA inhibitor, GSK-A1, was administered to HEK293T cells expressing CD63-nanoLuc (pDB30), and the amount of secreted extracellular vesicles was measured by luminescence assay (Promega Corporation, Nanoglo luciferase assay system) that measures the nluc activity in a culture supernatant or by nanoparticle tracking analysis (NTA) using Nanosight (Malvern Panalytical Ltd.). As a control, the same experiment was performed without administering GSK-A1, and the EV secretion level at each GSK-A1 concentration was calculated by setting the EV secretion level of the control as 1.

Turning to `COc1ncc(-c2ccc3nc(N)n(-c4ccc(N5CCOCC5)cc4)c3c2)cc1S(=O)(=O)Nc1ccccc1F` [GSK-A1, 5-(2-amino-1-(4-morpholinophenyl)-1H-benzo[d]imidazol-6-yl)-N-(2-fluorophenyl)-2-methoxypyridine-3-sulfonamide], the “secretion level of a CD63 positive extracellular vesicle” value is “increased”.
